Measured values from patent publication US20190203253A1, “METHODS OF IDENTIFYING AND TREATING CANCER PATIENTS WITH AN EPHB6 DEFICIENCY” (University of Saskatchewan, priority 2016, published 2019).

Key:
[1] = test system: CD34-stained blood vessels in MDA-B6 and MDA-pc3 tumors; test: Anti-CD34 immunohistochemistry of xenograft tumors (blood vessel density); type: in vivo, NOD-SCID mice; conditions: KX2-391-treated MDA-B6 and MDA-pc3 tumors (FIG. 7B)
Protocol: FIG. 7. Analysis of the SL interaction between EPHB6 and SRC in TNBC cells and murine xenografts. A. MDA-pc3 and MDA-B6 cells were injected into the mammary fat pad region of 4-6 weeks old NOD-SCID mice (1×10^6 cells per mouse). Mice with detectable tumors were treated twice per day with 5 mg/kg KX2-391 in DMSO/water solvent or solvent alone by oral feeding (at least 6 animals per each experimental condition). Tumor size was measured every 3 days and tumor volume was calculated with the equation: A/2*B^2, where A was long and B was short diameter of the tumor. The reduction in tumor growth in KX2-391-treated mice is presented as a percentage relative to matching solvent controls. The graph summarizes two independent experiments. Day 0 indicates the beginning of treatment with KX2-391 or matching solvent control. […] Four representative fields (at 3, 6, 9, and 12 o'clock) per each stained tumor section (one for each extracted tumor) were imaged at 100× magnification and the blood vessel density per each field was analyzed with the Image-Pro Premier software. […]
For the immunohistochemical staining, tumors were dissected and fixed in 10% neutral- buffered formalin for 24-48 h. […] In each stained tumor section, 12, 3, 6 and 9 o'clock fields were imaged at 100× magnification and the density of stained blood vessels per field was quantified using the Image-Pro Premier software.

MDA-pc3 and MDA-B6 cells = test: Cell death assays (propidium iodide and 7-AAD staining); type: cell-based, human; conditions: MDA-pc3 vs MDA-B6, 25 nM, 72 h (FIGS. 5A, 5B)
Protocol: FIG. 5. Inhibition of SRC induces cell death more efficiently in EPHB6-deficient cells. A. MDA-pc3, and MDA-B6 cells were cultured in glass-bottom plates in the presence of 25 nM KX2-391 or DMSO for 72 h and stained with 2.7 μg/mL propidium iodide (PI) in phenol red-free medium. Stained cells were imaged at 200× magnification using Zeiss LSM 700 confocal microscope and PI-stained cells were counted in at least 10 randomly captured frames. Counts of PI-positive cells were normalized on the total cell numbers in matching frames. […] B. MDA-pc3 and MDA-B6 cells were cultured in 6-well plates in the presence of 25 nM KX2-391 or a matching volume of DMSO for 72 h. Cells were collected and stained for 7-AAD for 15 minutes at room temperature. Cells were analyzed by flow cytometry and the FlowJo software. […] All experiments were performed at least three times. Scale bar, 100 μm. *, P<0.05, Student's t-test.
For propidium iodide (PI) staining, MDA-MB-231 and BT-20 cells were incubated in glass-bottom plates (MatTek, Ashland, Mass., USA) for 72 h and 96 h, respectively, with KX2-391 and matching volumes of DMSO. […] The amount of PI-stained cells was analyzed by microscopy using a Zeiss Observer Z1 at 200× magnification. […] PI-stained cells were counted in at least 10 randomly captured frames, normalized on the total number of cells in matching frames and compared between DMSO controls and treated cells. […]

[2] = test system: BT-20 cells (EPHB6-targeting shRNA vs non-silencing shRNA); test: Drug sensitivity assay (resazurin), SRC inhibitors, BT-20 cells with silenced EPHB6; type: cell-based, human; conditions: BT-20 with EPHB6-targeting shRNA vs non-silencing shRNA, 96 h (FIGS. 6A-6E)
Protocol: FIG. 6. SL relation between EPHB6 and SRC in BT-20 TNBC cells. A. Triple negative breast cancer cells, BT-20, were transduced with EPHB6-targeting shRNA (BT20-66-shRNA), or non-silencing shRNA (BT2O-NS). EPHB6 expression was analyzed by Western blotting with anti-EPHB6. Western blotting with anti-tubulin was used as a loading control. B. BT20-66-shRNA and BT2O-NS cells were cultured in 96-well plates with indicated concentrations of SU6656 or matching volumes of DMSO for 96 h. Cells were stained with resazurin and fluorescence was measured using a SpectraMax M5 plate reader to determine cell suppression. Five wells were analyzed per condition. […] C. […] Cells were stained with resazurin and fluorescence was measured using a SpectraMax M5 plate reader to determine cell suppression. Five wells were analyzed per condition. […] PI-stained cells were counted in at least 10 randomly captured frames. […] Stained cells were analyzed by flow cytometry and the FlowJo software. […]
MDA-MB-231 and BT-20 cell monolayers were incubated in 96-well plates for 72 h and 96 h, respectively, with indicated concentrations of KX2-391 or SU6656, or matching volumes of DMSO as a solvent control. Treated cells were stained using resazurin by following the manufacturer's instructions and fluorescence was measured using a SpectraMax M5 microplate reader.

**Q.** What does the source list for `O=C(Cc1ccc(-c2ccc(OCCN3CCOCC3)cc2)cn1)NCc1ccccc1` [KX2-391]?
**A.** neovascularization (CD34 staining) of treated EPHB6-positive vs EPHB6-negative tumors [1]: has not shown any differences in neovascularization; induction of cell death (Propidium Iodide or 7-AAD staining) (MDA-pc3 and MDA-B6 cells): more efficient in inducing cell death, when the EPHB6 receptor is not expressed; cell suppression after silencing of EPHB6 expression [2]: strongly increased their suppression
